{"source": "patent US20240024295A1", "about": "“COMPOSITIONS AND METHODS FOR INHIBITING HAIR GROWTH” (priority 2020, published 2024)", "test_system": "C3H mice", "assay": "Telogen Conversion Assay", "assay_type": "in vivo", "settings": "for effect on hair growth (average grade): average grade of 7 mice after 23 days, example written in present tense; for hair regrowth as compared to the control group (placebo): applied daily to mice, at the appropriate dose-level, week 3 and week 4, FIGURE; for Average Grades, 23 Days: average of 7 mice after 23 days", "protocol": "FP receptor antagonists are tested for their potential to grow hair using the Telogen Conversion Assay. The Telogen Conversion Assay measures the potential of a FP receptor antagonist to inhibit in mice the conversion of hair in the resting stage of the hair growth cycle (“telogen”), to the growth stage of the hair growth cycle (“anagen”), and to assess the rate of anagen growth.\nWithout intending to be limited by theory, there are three principal phases of the hair growth cycle: anagen, catagen, and telogen. It is believed that there is a long telogen period in C3H mice (Harian Sprague Dawley, Inc., Indianapolis, IN) from approximately 40 days of age until about 75 days of age, when hair growth is synchronized. It is believed that after 75 days of age, hair growth is no longer synchronized. Wherein about 40 day-old mice with dark fur (brown or black) are used in hair growth experiments, melanogenesis occurs along with hair (fur) growth wherein the topical application of hair growth inducers is evaluated. The Telogen Conversion Assay herein is used to screen FP receptor antagonists for potential hair growth by measuring melanogenesis and/or inhibition of expected hair growth.\nThree groups of 44 day-old C3H mice are used: a vehicle control group, a positive control group, and a test FP receptor antagonist group, wherein the test FP receptor antagonist group is administered a FP receptor antagonist. The length of the assay is typically 24 days with 15 treatment days (wherein the treatment days occur Mondays through Fridays). Day 1 is the first day of treatment. Typical dosage concentrations are set forth in Table 1, however the skilled artisan will readily understand that such concentrations may be modified.\nThe mice are treated topically Monday through Friday on their lower back (base of tail to the lower rib). A pipette and tip are used to deliver 400 μL to each mouse's back. The 400 μL application is applied slowly while moving hair on the mouse to allow the application to reach the skin.\nWhile each treatment is being applied to the mouse topically, a visual grade of from 0 to 4 will be given to the skin color in the application area of each animal. As a mouse converts from telogen to anagen, its skin color will become less pink and more bluish-black.", "key": {"[1]": {"settings": "visual skin/hair grade 0 (pink skin) to 4 (full anagen), topical"}}}
{"compound": "Ile-Leu-Gly-His-(citrulline)-Asp-Tyr-Lys [Example 5]", "values": [{"measurement": "effect on hair growth (average grade)", "result": "significantly reduces hair growth"}]}
{"compound": "COC(=O)CCC/C=C\\CC1C(/C=C/[C@H](O)C2Cc3ccccc3C2)[C@@H](F)C[C@@H]1O", "note": "(stereo partly drawn) [Example 2]", "values": [{"measurement": "hair regrowth as compared to the control group (placebo)", "result": "inhibited hair regrowth"}, {"measurement": "Average Grades, 23 Days", "setting": "[1]", "result": 0.1}]}
{"compound": "CC(C)OC(=O)CCC/C=C\\CC1C(/C=C/[C@H](O)C2Cc3ccccc3C2)[C@@H](F)C[C@@H]1O", "note": "(stereo partly drawn) [Example 4]", "values": [{"measurement": "effect on hair growth (average grade)", "result": "significantly reduces hair growth"}]}
{"compound": "O=C(O)CCC/C=C\\CC1C(/C=C/[C@H](O)C2Cc3ccccc3C2)[C@@H](F)C[C@@H]1O", "note": "(stereo partly drawn) [Example 1]", "values": [{"measurement": "Average Grades, 23 Days", "setting": "[1]", "result": 0.4}, {"measurement": "Average Grades, 25 Days", "setting": "visual skin/hair grade 0 (pink skin) to 4 (full anagen), average of 7 mice after 25 days, topical", "result": 0.1}, {"measurement": "Average Grades, 26 Days", "setting": "visual skin/hair grade 0 (pink skin) to 4 (full anagen), average of 7 mice after 26 days, topical", "result": 0.7}]}
{"compound": "O=C(N[C@H](c1ccccc1)c1ccccn1)[C@@H]1SCCN1S(=O)(=O)c1ccc(-c2ccccc2)cc1", "note": "[Example 3]", "values": [{"measurement": "hair regrowth as compared to the control group (placebo)", "result": "inhibited hair regrowth"}, {"measurement": "effect on hair growth (average grade)", "result": "significantly reduces hair growth"}]}
